# Source: patent publication US7109341B2, “Therapeutic amides” (Wayne State University, priority 2002, dated 2006)
# Where “and” joins values, the source holds several entries; their conditions need not be identical. Equal entries are not always repeated. Entries after “also recorded” stand apart in the source; their conditions may differ. Where two headings read alike, the source gives them in different places.
# What was measured:
# [1] = Water solubility noted on drug preparation for injection; assay type: physicochemical
# Description: (§1) Compounds as their sodium salts were prepared in a 1% sodium bicarbonate solution, H2O or phosphate buffered saline (PBS), with pH adjusted to 7.0 to 7.5 with HCl, and administered intravenously (IV) or orally (PO), at injection volumes of 0.2 mL per injection.
# [2] = tested on: Pancreatic Ductal Adenocarcinoma 03; settings: for Comments (Active/Inactive) / Comments (activity rating) / Drug Death / Log Cell Kill / Median Tumor Burden in mg on d17 / T-C / T/C % / Time to 1000 mg / Tumor Free on 148: BDF1 males;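 on all read-outs here: mice carrying bilateral subcutaneous tumors, with tumor weight estimated from two-dimensional caliper readings taken twice a week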
# Description: (§2) Pancreatic ductal adenocarcinoma-03, mammary adenocarcinoma-16/C, mammary adenocarcinoma-17/Adr, and human melanoma LOX were used in the studies. Tumors were maintained in the mouse strain of origin (C57B1/6 for Panc-03 and C3H for the mammary tumors). Balb/c SCID mice (B and T cell deficient) were used for tumor maintenance and chemotherapy trials involving the human melanoma LOX. Tumors were transplanted into the appropriate F1 hybrid (B6D2F1=C57B 1/6 female× DBA/2 male) or the strain of origin for the chemotherapy trials. Individual mouse body weights for each experiment were within 5 grams, and all mice were over 17 grams at the start of therapy. The mice were supplied food and water ad libitum.
# (§3) Animals were pooled, implanted subcutaneously with 30 to 60 mg tumor fragments by a 12 gauge trocar on day 0, and again pooled before unselective distribution to the various treatment and control groups. For early stage treatment, chemotherapy was started within 1 to 3 days after tumor implantation while the number of cells was relatively small (10^7 to 10^8 cells). For upstaged or advanced staged trials, the tumors were allowed to grow for five or more days before treatment was started. Tumors were measured with a caliper twice weekly. […] Tumor weights are estimated from two-dimensional measurements:
# (§4) Tumor weight (in mg)=(a×b^2)/2, where a and b are the tumor length and width in (mm), respectively.
# (§5) a) Tumor growth delay (T−C value), where T is the median time (in days) required for the treatment group tumors to reach a predetermined size (e.g., 1,000 mg), and C is the median time (in days) for the control group tumors to reach the same size. Tumor-free survivors were are excluded from these calculations (cures are tabulated separately). This value is an important criterion of anti-tumor effectiveness because it allows the quantification of tumor cell kill.
# (§6) b) Calculation of tumor cell kill for subcutaneously (SC) growing tumors. […] The conversion of the T−C values to log10 cell kill is possible because the Td of tumors re-growing post treatment (Rx) approximates the Td values of the tumors in untreated control mice.
# (§7) It should be noted that an activity rating of +++ to ++++ is needed to effect partial regression (PR) or complete regression (CR) of 100 to 300 mg size masses of most transplanted solid tumors of mice. Thus, an activity rating of + or ++ would not be scored as active by usual clinical criteria. A PR is a reduction in tumor mass to less than 50% of pretreatment size. A CR is a reduction in tumor mass to below palpable size (i.e., reduction to zero detectable mass).
# (§8) The T/C value in percent is an indication of anti-tumor effectiveness: A T/C=0% means no tumor growth. A T/C=100% means no anti-tumor activity, i.e., the treated and control tumors grew equally. […] A T/C value<10% is considered to indicate highly significant anti-tumor activity, and is the level used by NCI to justify a clinical trial if toxicity, formulation, and certain other requirements are met (termed DN-2 level activity).
# as §1
# Thus, for this test, all compounds initially were to be given IP, in an attempt to identify a suitable alternate route of administration.
# Human Melanoma LOX = settings: IV, qd 1–6, BID 7, total 700 mg/kg
# [3] = tested on: Mammary Adenocarcinoma 16/C; settings: IV
# Description: as §2, §3, §4
# a) Tumor growth delay (T−C value), where T is the median time (in days) required for the treatment group tumors to reach a predetermined size (e.g., 1,000 mg), and C is the median time (in days) for the control group tumors to reach the same size. Tumor-free survivors were are excluded from these calculations (cures are tabulated separately).
# as §6, §7, §8, §1
# [4] = tested on: Pancreatic Ductal Adenocarcinoma #03
# Description: as §2, §3, §4, §5, §6
# In selected cases, both for historic in vivo evaluation data as well as data presented here, it is of value to compare log kill numbers from trials of markedly different testing schedules. […] It should be noted that an activity rating of +++ to ++++ is needed to effect partial regression (PR) or complete regression (CR) of 100 to 300 mg size masses of most transplanted solid tumors of mice. Thus, an activity rating of + or ++ would not be scored as active by usual clinical criteria. A PR is a reduction in tumor mass to less than 50% of pretreatment size. A CR is a reduction in tumor mass to below palpable size (i.e., reduction to zero detectable mass).
# as §8, §1
# [5] = tested on: Mammary Adenocarcinoma 16/C; settings: Cage 2, IV, BID 1–5, total 600 mg/kg
# Description: Table 7. […] The animal was then re-implanted with Mam16/C/71.
# [6] = tested on: Pancreatic Adenocarcinoma 03; assay: Evaluation against early stage Pancreatic Adenocarcinoma 03 in BDF1 male mice (Table 1); assay type: in vivo, mouse; settings: PO, QD3–6, 9–11, BID 7–8
# [7] = Cage 8, 135 mg/kg IP day 3, then SC days 5, 7, 11, 13, 15, total 615 mg/kg
# [8] = Cage 9, IP, 80 mg/kg/inj days 3, 5, 7, 11, 13, 15, total 480 mg/kg
# [9] = Cage 10, IP, 50 mg/kg/inj Q2d×7 from day 3, total 350 mg/kg
# [10] = IP d 3 then SC d5, 7, 11, 13, 15, total dosage 615 mg/kg
# [11] = IP, Q2d: 3–15, total dosage 350 mg/kg
# [12] = IP, d3, 5, 7, 11, 13, 15, total dosage 480 mg/kg
# [13] = Cage 4, d1, 3–5, 7, 9, 11, 13, 15, total 1610 mg/kg
# [14] = Cage 5, d1, 3–7, 9, total 665 mg/kg
# [15] = Cage 3, IV-SC, qd 3–5, 8–11, BID 6, 7, total 780 mg/kg
# [16] = Cage 4, IV-SC, qd 3–5, 8–11, BID 6, 7, total 390 mg/kg
# [17] = Cage 5, IV, qd 3, 4, total 30 mg/kg
smiles,measurement,setting,value
"CC(Oc1ccc(Oc2ccc3ccc(Br)cc3n2)cc1)C(=O)NCC(=O)O [Compound 14h (R), {2-[4-(7-Bromo-quinolin-2-yloxy)-phenoxy]-propionylamino}acetic acid]",water solubility,[1],Low water solubility limits; also recorded: much lower water solubility
same,Preparation: state of the injection preparation,"[1]; white solid + 3% EtOH + 1% POE + 0.25% NaHCO3 + saline, pH = 8.0","Compound 14h (R): white solid + 3% EtOH + 1% POE + 0.25% NaHCO3 + saline → suspension (pH = 8.0); 0.5 ml/mouse/inj, IP; 0.2 ml/mouse/inj, SC."
same,Activity Rating,[2]; [7],++ (1.3–1.9)
same,T/C,[2]; [7],3%
same,log cell kill,[2]; [7],1.9
same,T/C,[2]; [8],6%
same,log cell kill,[2]; [8],1.7
same,Activity Rating,[2]; [9],+ (0.7–1.2)
same,T/C,[2]; [9],16.5%
same,log kill,[2]; [9],1.0
same,Comments (Active/Inactive),[2]; [10],Inactive
same,Comments (activity rating),[2]; [10],(++) (1.3–1.9)
same,Drug Death,[2]; [10],0/5
same,Log Cell Kill,[2]; [10],1.9
same,Median Tumor Burden in mg on d17,[2]; [10],63 mg
same,T-C,[2]; [10],13 days
same,T/C %,[2]; [10],3%
same,Time to 1000 mg,[2]; [10],28 days
same,Tumor Free on 148,[2]; [10],0/5
same,Comments (Active/Inactive),[2]; [11],Active
same,Comments (activity rating),[2]; [11],(+) (0.7–1.2)
same,Drug Death,[2]; [11],0/5
same,Log Cell Kill,[2]; [11],1.0
same,Median Tumor Burden in mg on d17,[2]; [11],304 mg
same,T-C,[2]; [11],7 days
same,T/C %,[2]; [11],16.5%
same,Time to 1000 mg,[2]; [11],22 days
same,Tumor Free on 148,[2]; [11],0/5
same,Comments (Active/Inactive),[2]; [12],Active
same,Comments (activity rating),[2]; [12],(++) (1.3–1.9)
same,Drug Death,[2]; [12],0/5
same,Log Cell Kill,[2]; [12],1.7
same,Median Tumor Burden in mg on d17,[2]; [12],108 mg
same,T-C,[2]; [12],12 days
same,T/C %,[2]; [12],6%
same,Time to 1000 mg,[2]; [12],27 days
same,Tumor Free on 148,[2]; [12],0/5
same,Day of Wt. Loss Nadir,"[2]; mouse, in vivo",9 days and 10 days and 8 days
same,day of full weight recovery,"[2]; mouse, in vivo",20 days and 15 days
same,day of weight loss nadir,"[2]; mouse, in vivo",9 days and 10 days and 8 days
same,weight loss nadir,"[2]; mouse, in vivo",−13.3%
CC(Oc1ccc(Oc2cnc3ccc(Cl)cc3n2)cc1)C(=O)NCCS(=O)(=O)[O-].[Na+] [Compound 14f (R)],Comments (activity rating),Human Melanoma LOX; Cage 2,(+) (0.7–1.2)
same,Drug Death (day of death),Human Melanoma LOX; Cage 2,no drug deaths and 0/5
same,Log Cell Kill,Human Melanoma LOX; Cage 2,0.8
same,Median Tumor Burden in mg on d 9 (range),Human Melanoma LOX; Cage 2,651 mg
same,T-C,Human Melanoma LOX; Cage 2,3.0 days
same,T/C %,Human Melanoma LOX; Cage 2,47%
same,Time to 1000 mg days (range),Human Melanoma LOX; Cage 2,11.0 days
same,Tumor Free on d 18,Human Melanoma LOX; Cage 2,0/5
same,Day of Wt. Loss Nadir,[3]; [13],14 days
same,Drug Death (day of death),[3]; [13],0/5
same,Log Cell Kill,[3]; [13],4.2
same,Mean Body Wt. Loss in g/mouse,[3]; [13],−0.8 g/mouse
same,Median Tumor Burden in mg on day 7 (range),[3]; [13],0 mg
same,Percent Body Weight Loss,[3]; [13],−3.0%
same,T-C,[3]; [13],14 days
same,T/C %,[3]; [13],0%
same,Time to 1000 mg in days (range),[3]; [13],20 days
same,Tumor Free on d28,[3]; [13],no cures and 0/5
same,day of full body weight recovery,[3]; [13],≤ 16 days
same,Day of Wt. Loss Nadir,[3]; [14],5 days
same,Drug Death (day of death),[3]; [14],0/5
same,Log Cell Kill,[3]; [14],1.8
same,Mean Body Wt. Loss in g/mouse,[3]; [14],−0.8 g/mouse
same,Median Tumor Burden in mg on day 7 (range),[3]; [14],260 mg
same,Percent Body Weight Loss,[3]; [14],−2.9%
same,T-C,[3]; [14],6 days
same,T/C %,[3]; [14],14%
same,Time to 1000 mg in days (range),[3]; [14],12 days
same,Tumor Free on d28,[3]; [14],0/5
"CC(Oc1ccc(Oc2cnc3ccc(Cl)cc3n2)cc1)C(=O)NCCS(=O)(=O)[O-].[Na+] (stereo not drawn) [Compound 14f, Sodium (2-(4-(7-chloro-2-quinoxalinyl)oxy)phenoxy)propionylamino ethanesulfonate]",Drug Death (day of death),[4]; [15],0/5
same,Log Cell Kill,[4]; [15],1.67
same,Median Tumor Burden in mg on d17 (range),[4]; [15],126 mg
same,T-C,[4]; [15],10.0 days
same,T/C %,[4]; [15],10%
same,Time to 1000 mg in days (range),[4]; [15],26 days
same,Tumor Free on d35,[4]; [15],0/5
same,Comments (activity rating),[4]; [16],Inactive
same,Drug Death (day of death),[4]; [16],0/5
same,Log Cell Kill,[4]; [16],0.58
same,Median Tumor Burden in mg on d17 (range),[4]; [16],600 mg
same,T-C,[4]; [16],3.5 days
same,T/C %,[4]; [16],50%
same,Time to 1000 mg in days (range),[4]; [16],19.5 days
same,Tumor Free on d35,[4]; [16],0/5
same,Comments (activity rating),[4]; [17],Inactive
same,Drug Death (day of death),[4]; [17],0/5
same,Log Cell Kill,[4]; [17],0.0
same,Median Tumor Burden in mg on d17 (range),[4]; [17],1420 mg
same,T-C,[4]; [17],0.0 days
same,T/C %,[4]; [17],>100%
same,Time to 1000 mg in days (range),[4]; [17],16 days
same,Tumor Free on d35,[4]; [17],0/5
same,Day of Wt. Loss Nadir,"[4]; mouse, in vivo",11 days
"CC(Oc1ccc(Oc2ccc3ccc(Br)cc3n2)cc1)C(=O)NCCS(=O)(=O)[O-].[Na+] (stereo not drawn) [Compound 14g, Sodium (2-(4-(7-bromo-2-quinolinyl)oxy)phenoxy)propionylamino ethanesulfonate]",Day of Wt. Loss Nadir,[5],4 days
same,Drug Death (day of death),[5],0/6
same,Log Cell Kill,[5],0.9
same,Mean Body Wt. Loss in g/mouse,[5],−2.3 g/mouse
same,Median Tumor Burden in mg on d 9 (range),[5],230 mg
same,T-C,[5],3.5 days
same,T/C %,[5],14%
same,"Time to 1,000 mg in days (range)",[5],11.5 days
same,day of full body weight recovery,[5],≤ 10 days
same,Percent Body Weight Loss,[5]; listed as 14g (Racemic),−11.0%
same,Tumor Free on d 161,[5]; listed as 14g (Racemic),1/6
same,Comments (activity rating),[5]; listed as 14g Racemic,+ (0.7–1.2)
same,Percent Body Weight Loss,[5]; listed as 14g Racemic,11%
same,Tumor Free on d 161,[5]; listed as 14g Racemic,One animal remained tumor free
same,Percent Body Weight Loss,[5]; listed as 14g racemic,−11%
same,Tumor Free on d 161,[5]; listed as 14g racemic,⅕
CC(Oc1ccc(Oc2cnc3ccc(Cl)cc3n2)cc1)C(=O)NCCS(=O)(=O)[O-].[Na+] [Compound 14f (S)],Comments (activity rating),Human Melanoma LOX; Cage 3,Inactive
same,Drug Death (day of death),Human Melanoma LOX; Cage 3,0/5
same,Log Cell Kill,Human Melanoma LOX; Cage 3,0.3
same,Median Tumor Burden in mg on d 9 (range),Human Melanoma LOX; Cage 3,994 mg
same,T-C,Human Melanoma LOX; Cage 3,1.0 days
same,T/C %,Human Melanoma LOX; Cage 3,71%
same,Time to 1000 mg days (range),Human Melanoma LOX; Cage 3,9.0 days
same,Tumor Free on d 18,Human Melanoma LOX; Cage 3,0/5
CC(Oc1ccc(Oc2cnc3ccc(Cl)cc3n2)cc1)C(N)=O (stereo not drawn) [Compound 14a],Day of Wt. Loss Nadir,"[6]; Cage 5, total 1,320 mg/kg",8 days
same,Drug Deaths (days of death),"[6]; Cage 5, total 1,320 mg/kg",0/5
same,Log Kill,"[6]; Cage 5, total 1,320 mg/kg",1.9
same,Mean Body Wt. Loss in g/mouse,"[6]; Cage 5, total 1,320 mg/kg",−0.8 g/mouse
same,Median tumor burden in mg on day 14 (range),"[6]; Cage 5, total 1,320 mg/kg",126 mg
same,Percent Body Wt. Loss,"[6]; Cage 5, total 1,320 mg/kg",−3.6%
same,T-C,"[6]; Cage 5, total 1,320 mg/kg",12 days
same,T/C %,"[6]; Cage 5, total 1,320 mg/kg",7.3%
same,Time to 1000 mg days (range),"[6]; Cage 5, total 1,320 mg/kg",23 days
same,Tumor Free on day 21,"[6]; Cage 5, total 1,320 mg/kg",0/5
same,toxicity observations,"[6]; Cage 5, total 1,320 mg/kg",Toxicity was not reached
same,Day of Wt. Loss Nadir,"[6]; Cage 6, total 660 mg/kg",5 days
same,Drug Deaths (days of death),"[6]; Cage 6, total 660 mg/kg",0/5
same,Log Kill,"[6]; Cage 6, total 660 mg/kg",0.7
same,Mean Body Wt. Loss in g/mouse,"[6]; Cage 6, total 660 mg/kg",−0.4 g/mouse
same,Median tumor burden in mg on day 14 (range),"[6]; Cage 6, total 660 mg/kg",695 mg
same,Percent Body Wt. Loss,"[6]; Cage 6, total 660 mg/kg",−1.8%
same,T-C,"[6]; Cage 6, total 660 mg/kg",4.5 days
same,T/C %,"[6]; Cage 6, total 660 mg/kg",40%
same,Time to 1000 mg days (range),"[6]; Cage 6, total 660 mg/kg",15.5 days
same,Tumor Free on day 21,"[6]; Cage 6, total 660 mg/kg",0/5
same,Day of Wt. Loss Nadir,"[6]; Cage 7, total 330 mg/kg",6 days
same,Drug Deaths (days of death),"[6]; Cage 7, total 330 mg/kg",no lethality and 0/5
same,Log Kill,"[6]; Cage 7, total 330 mg/kg",0.3
same,Median tumor burden in mg on day 14 (range),"[6]; Cage 7, total 330 mg/kg",1273 mg
same,T-C,"[6]; Cage 7, total 330 mg/kg",2 days
same,T/C %,"[6]; Cage 7, total 330 mg/kg",74%
same,Time to 1000 mg days (range),"[6]; Cage 7, total 330 mg/kg",13 days
same,Tumor Free on day 21,"[6]; Cage 7, total 330 mg/kg",0/5
